Test [1] relates to NCI-N87. Description: NCI-N87 assay, in vitro cytotoxicity of PBD payloads (MTS, 7 days). Format: cell-based. The settings on record: Homo sapiens, NCI-N87, 168 h; 7 days incubation, mean of three independent replicates. How it is done: The potency of each of the PBD molecules were measured via in vitro cytotoxicity assays in the carcinoma cell line NCI-N87.
(§1) Solid PBD material was dissolved in DMSO to a 2 mM stock solution, from which eight serial dilutions were made at a 1:10 ratio in DMSO and stored at −20° C. until use.
Adherent NCI-N87 cells were washed with D-PBS and detached with Trypsin-EDTA, cell density and viability were then determined in duplicate by Trypan blue exclusion assay using an automated cell counter (LUNA-II™). Cell suspension was diluted to 1×10^5 cells/ml in growth media (RPMI 1640 with Glutamax+10% (v/v) HyClone™ Fetal Bovine Serum) and vortexed before dispensing 2 mL per well into sterile 3 mL polypropylene plates. Warhead dilutions were then dispensed into the appropriate wells at 10 μl/well and mixed by repeat pipetting. For control wells 10 μl of DMSO was dispensed onto 2 mL cell suspension, and thoroughly mixed. 100 μl of each sample was then aliquoted into 2 replicate wells of a sterile flat 96-well microplate and incubated in a 37° C. CO2-gassed (5%) incubator. At the end of the incubation period time (7 days), cell viability was measured by CellTiter 96® Aqueous One (MTS) assay, which was dispensed at 20 μl/well and incubated for 4 hours at 37° C., 5% CO2.
Plates were then read on an EnVision® Multi-label Plate Reader (Perkin Elmer) using absorbance at 490 nm.
Cell survival percentage was calculated from the mean absorbance of the 2 replicate wells for each sample, compared to the mean absorbance in the two control wells treated with DMSO only (100%). The IC50 was determined by fitting each data set to sigmoidal dose-response curves with a variable slope using the non-linear curve fit algorithm on the GraphPad Prism software (San Diego, Calif.).
All the experiments in this report were carried out and tested in three independent experiments. Data are reported as the mean of the three independent replicates.

For test [2], the system named is K562. Description: K562 assay, in vitro cytotoxicity of PBD payloads (MTS, 4 days). Format: cell-based. The settings on record: Homo sapiens, K562, 96 h; 4 days incubation, mean of three independent replicates. How it is done: The potency of each of the PBD molecules were measured via in vitro cytotox assays in the carcinoma cell line K562.
as §1
Adherent K562 cells were washed with D-PBS and detached with Trypsin-EDTA, cell density and viability were then determined in duplicate by Trypan blue exclusion assay using an automated cell counter (LUNA-II™). Cell suspension was diluted to 1×10^5 cells/ml in growth media (RPMI 1640 with Glutamax+10% (v/v) HyClone™ Fetal Bovine Serum) and vortexed before dispensing 2 mL per well into sterile 3 mL polypropylene plates. […] At the end of the incubation period time (4 days), cell viability was measured by CellTiter 96® Aqueous One (MTS) assay, which was dispensed at 20 μl/well and incubated for 4 hours at 37° C., 5% CO2. Plates were then read on an EnVision® Multi-label Plate Reader (Perkin Elmer) using absorbance at 490 nm.
Cell survival percentage was calculated from the mean absorbance of the 2 replicate wells for each sample, compared to the mean absorbance in the two control wells treated with DMSO only (100%). The IC50 was determined by fitting each data set to sigmoidal dose-response curves with a variable slope using the non-linear curve fit algorithm on the GraphPad Prism software (San Diego, Calif.). […]

The text below walks through data of US11524969B2, “Pyrrolobenzodiazepines and conjugates thereof as antitumour agents” (MEDIMMUNE LIMITED, priority 2018, dated 2022).

For the compound `C=C1C[C@H]2C=Nc3cc(OCc4cc(COc5cc6c(cc5OC)C(=O)N5CC(=C)C[C@H]5C=N6)cc(C(=O)O)c4)c(OC)cc3C(=O)N2C1` [Compound 53, 3,5-bis((((S)-7-Methoxy-2-methylene-5-oxo-2,3,5,11a-tetrahydro-1H-benzo[e]pyrrolo[1,2-a][1,4]diazepin-8-yl)oxy)methyl)benzoic acid], the concentration for half-maximal inhibition (IC50) (commonly the concentration needed to halve the response being measured) in test [1] was found to be 4.31 nM.

Turning to `COC(=O)c1cc(COc2cc3c(cc2OC)C(=O)N2C=C(C)C[C@H]2C=N3)cc(COc2cc3c(cc2OC)C(=O)N2C=C(C)C[C@H]2C=N3)c1` [Compound 47, Methyl 3,5-bis((((S)-7-methoxy-2-methyl-5-oxo-5,11a-dihydro-1H-benzo[e]pyrrolo[1,2-a][1,4]diazepin-8-yl)oxy)methyl)benzoate], the half-inhibitory concentration (IC50) in test [2] worked out at 0.162 nM.

On to `C=C1C[C@H]2C=Nc3cc(OCc4cc(COc5cc6c(cc5OC)C(=O)N5CC(=C)C[C@H]5C=N6)cc(C(=O)OC)c4)c(OC)cc3C(=O)N2C1` [Compound 51, Methyl 3,5-bis((((S)-7-methoxy-2-methylene-5-oxo-2,3,5,11a-tetrahydro-1H-benzo[e]pyrrolo[1,2-a][1,4]diazepin-8-yl)oxy)methyl)benzoate], for which, in test [1], inhibition was half-maximal at 0.0685 nM (IC50).

In turn, `C=C1C[C@H]2C=Nc3cc(OCc4cc(C(=O)O)cc(COc5cc6c(cc5OC)C(=O)N5CC(=C)C[C@H]5C=N6)n4)c(OC)cc3C(=O)N2C1` [Compound 56, 2,6-Bis((((S)-7-methoxy-2-methylene-5-oxo-2,3,5,11a-tetrahydro-1H-benzo[e]pyrrolo[1,2-a][1,4]diazepin-8-yl)oxy)methyl)isonicotinic acid] registered a half-inhibitory concentration (IC50) in test [1] of 20.7 nM.

Consider `C=C1C[C@H]2C=Nc3cc(OCc4cc(C(=O)OC)cc(COc5cc6c(cc5OC)C(=O)N5CC(=C)C[C@H]5C=N6)n4)c(OC)cc3C(=O)N2C1` [Compound 55, Methyl 2,6-bis((((S)-7-methoxy-2-methylene-5-oxo-2,3,5,11a-tetrahydro-1H-benzo[e]pyrrolo[1,2-a][1,4]diazepin-8-yl)oxy)methyl)isonicotinate], for which, in test [1], the IC50 came to 0.0168 nM.

In test [2], `COc1cc2c(cc1OCc1cc(COc3cc4c(cc3OC)C(=O)N3C=C(C)C[C@H]3C=N4)cc(C(=O)O)c1)N=C[C@@H]1CC(C)=CN1C2=O` [Compound 49, 3,5-bis((((S)-7-methoxy-2-methyl-5-oxo-5,11a-dihydro-1H-benzo[e]pyrrolo[1,2-a][1,4]diazepin-8-yl)oxy)methyl)benzoic acid] displayed a concentration for half-maximal inhibition (IC50) of 1.84 nM.

In test [1], `C=C1C[C@H]2C=Nc3cc(OCc4cccc(COc5cc6c(cc5OC)C(=O)N5CC(=C)C[C@H]5C=N6)c4)c(OC)cc3C(=O)N2C1` [Compound 58, (11aS,11a′S)-8,8′-((1,3-phenylenebis(methylene))bis(oxy))bis(7-methoxy-2-methylene-1,2,3,11a-tetrahydro-5H-benzo[e]pyrrolo[1,2-a][1,4]diazepin-5-one), reference compound] yielded a half-maximal inhibitory concentration (IC50) of 0.0172 nM.
